Source: patent publication US10508109B2 (priority 2015, dated 2019)
Structures can show the parent of a compound that is named as a salt. Where two headings read alike, the source gives them in different places.

Legend:
SUV39H2 = SUV39H2 (Homo sapiens (Human), UniProt Q9H5I1); experiment: biochemical; type: biochemical; settings: 3H-SAM 100 nM, H3 Histone Peptide 350 nM, room temperature 3 hours
Summary of the method: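 Human SUV39H2, at a lot-specific concentration set by specific activity, was incubated with test compounds for 3 h at room temperature, then stopped with streptavidin SPA beads (50 μg/well final).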

A549 = experiment: Cell-based assay, anti-proliferative activity (Cell Counting Kit-8, 72 hours); settings: Homo sapiens, read-out: A549 IC50
Summary of the method: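 Cells were seeded in 96-well plates and exposed to candidate inhibitors. Cellular growth was then determined with the colorimetric kit, and IC50 values were calculated from the growth data.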

[1] = A549 cells, 72 hours exposure, Cell Counting Kit-8

Sequence of SUV39H2 (Q9H5I1 whole entry): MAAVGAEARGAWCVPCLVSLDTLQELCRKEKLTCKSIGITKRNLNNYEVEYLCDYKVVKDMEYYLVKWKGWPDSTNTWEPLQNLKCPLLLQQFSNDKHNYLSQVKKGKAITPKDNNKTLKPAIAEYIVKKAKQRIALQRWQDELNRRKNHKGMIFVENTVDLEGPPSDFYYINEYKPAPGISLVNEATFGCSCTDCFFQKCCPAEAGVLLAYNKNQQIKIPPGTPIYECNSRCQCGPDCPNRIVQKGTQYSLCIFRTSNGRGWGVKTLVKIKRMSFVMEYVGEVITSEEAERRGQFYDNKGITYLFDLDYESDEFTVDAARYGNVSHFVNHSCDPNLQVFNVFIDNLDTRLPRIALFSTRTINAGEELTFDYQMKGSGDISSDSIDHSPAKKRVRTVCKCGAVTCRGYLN

| Compound | IC50 (SUV39H2) [nM] | IC50 (A549; [1]) [nM] | IC50 (A549; A549, 72 h) [nM] |
| --- | --- | --- | --- |
| COc1cc(OC)c(-c2cn3ccc(N[C@H]4CC[C@@H](NCc5ccc(C)cc5)CC4)cc3n2)cc1Cl [Example 329, cis-N^1-(2-(5-chloro-2,4-dimethoxyphenyl)imidazo[1,2-a]pyridin-7-yl)-N^4-(4-methylbenzyl)cyclohexane-1,4-diamine] | 38.8 | 780 | – |
| COc1cc(OC)c(-c2cn3ccc(N4CCN(c5ccncc5F)CC4)cc3n2)cc1Cl [Example 322, 2-(5-chloro-2,4-dimethoxyphenyl)-7-(4-(3-fluoropyridin-4-yl)piperazin-1-yl)imidazo[1,2-a]pyridine] | 57.5 | 560 | – |
| COc1cc(OC)c(-c2cn3ccc(N[C@H]4CC[C@@H](NCc5ccc(F)cc5)CC4)cc3n2)cc1Cl [Example 326, cis-N^1-(2-(5-chloro-2,4-dimethoxyphenyl)imidazo[1,2-a]pyridin-7-yl)-N^4-(4-fluorobenzyl)cyclohexane-1,4-diamine] | 20.3 | 660 | – |
| COc1cc(OC)c(-c2cn3ccc(N[C@H]4CC[C@H](NCc5ccccc5F)CC4)cc3n2)cc1Cl [Example 414, (1r,4r)-N^1-(2-(5-chloro-2,4-dimethoxyphenyl)imidazo[1,2-a]pyridin-7-yl)-N^4-(2-fluorobenzyl)cyclohexane-1,4-diamine] | 84.8 | 820 | – |
| COc1cc(OC)c(-c2cn3ccc(N4CCN(c5nc(N)nc(Cl)n5)CC4)cc3n2)cc1Cl [Example 361, 4-chloro-6-(4-(2-(5-chloro-2,4-dimethoxyphenyl)imidazo[1,2-a]pyridin-7-yl)piperazin-1-yl)-1,3,5-triazin-2-amine] | 43.3 | 870 | – |
| COc1cc(OC)c(-c2cn3ccc(N4CCC[C@H](NCC5CCCCC5)C4)cc3n2)cc1Cl [Example 455, (S)-1-(2-(5-chloro-2,4-dimethoxyphenyl)imidazo[1,2-a]pyridin-7-yl)-N-(cyclohexylmethyl)piperidin-3-amine] | 12.3 | 920 | – |
| COc1cc(OC)c(-c2cn3ccc(N4CCN(c5ccnc(N6CCC(N)CC6)n5)CC4)cc3n2)cc1Cl [Example 338, 1-(4-(4-(2-(5-chloro-2,4-dimethoxyphenyl)imidazo[1,2-a]pyridin-7-yl)piperazin-1-yl)pyrimidin-2-yl)piperidin-4-amine] | 17 | 1200 | – |
| COc1cc(OC)c(-c2cn3ccc(N4CCN(c5ncc(N6CCC(N)CC6)cn5)CC4)cc3n2)cc1Cl [Example 441, 1-(2-(4-(2-(5-chloro-2,4-dimethoxyphenyl)imidazo[1,2-a]pyridin-7-yl)piperazin-1-yl)pyrimidin-5-yl)piperidin-4-amine] | 4.99 | 540 | – |
| CNC1CCN(c2ncc(N3CCN(c4ccn5cc(-c6cc(Cl)c(OC)cc6OC)nc5c4)CC3)cn2)CC1 [Example 396, 1-(5-(4-(2-(5-chloro-2,4-dimethoxyphenyl)imidazo[1,2-a]pyridin-7-yl)piperazin-1-yl)pyrimidin-2-yl)-N-methylpiperidin-4-amine dihydrochloride] | 14.6 | – | 780 |
| COc1cc(OC)c(-c2cn3ccc(N4CCN(c5cnc(N6CCCC6)nc5)CC4)cc3n2)cc1Cl [Example 333, 2-(5-chloro-2,4-dimethoxyphenyl)-7-(4-(2-(pyrrolidin-1-yl)pyrimidin-5-yl)piperazin-1-yl)imidazo[1,2-a]pyridine] | 62 | 720 | – |
| COc1cc(OC)c(-c2cn3ccc(N4CCC[C@H](NCC5CCN(C(=O)OC(C)(C)C)CC5)C4)cc3n2)cc1Cl [Example 454, (S)-tert-butyl 4-(((1-(2-(5-chloro-2,4-dimethoxyphenyl)imidazo[1,2-a]pyridin-7-yl)piperidin-3-yl)amino)methyl)piperidine-1-carboxylate] | 27 | 760 | – |
| COc1cc(OC)c(-c2cn3ccc(N4CCN(c5cc(N6CCOCC6)nc(N)n5)CC4)cc3n2)cc1Cl [Example 384, 4-(4-(2-(5-chloro-2,4-dimethoxyphenyl)imidazo[1,2-a]pyridin-7-yl)piperazin-1-yl)-6-morpholinopyrimidin-2-amine] | 10.9 | 940 | – |
| COc1cc(OC)c(-c2cn3ccc(N4CCCN(C(C)=O)CC4)cc3n2)cc1Cl [Example 429, 1-(4-(2-(5-chloro-2,4-dimethoxyphenyl)imidazo[1,2-a]pyridin-7-yl)-1,4-diazepan-1-yl)ethanone] | 16.1 | 10000 | – |
| COc1cc(OC)c(-c2cn3ccc(N4CCN(c5nccc(N6CCN(C(=O)Cc7ccccc7)CC6)n5)CC4)cc3n2)cc1Cl [Example 382, 1-(4-(2-(4-(2-(5-chloro-2,4-dimethoxyphenyl)imidazo[1,2-a]pyridin-7-yl)piperazin-1-yl)pyrimidin-4-yl)piperazin-1-yl)-2-phenylethanone dihydrochloride] | 31.7 | – | 680 |
| COc1cc(OC)c(-c2cn3ccc(N4CCN(c5ncc(N6CCN(C)CC6)cn5)CC4)cc3n2)cc1Cl [Example 430, 2-(5-chloro-2,4-dimethoxyphenyl)-7-(4-(5-(4-methylpiperazin-1-yl)pyrimidin-2-yl)piperazin-1-yl)imidazo[1,2-a]pyridine] | 13.7 | 950 | – |
| COc1cc(OC)c(-c2cn3ccc(N4CCN(c5cc(Cl)nc(N)n5)CC4)cc3n2)cc1Cl [Example 360, 4-chloro-6-(4-(2-(5-chloro-2,4-dimethoxyphenyl)imidazo[1,2-a]pyridin-7-yl)piperazin-1-yl)pyrimidin-2-amine] | 56 | 620 | – |
| COc1cc(OC)c(-c2cn3ccc(N4CC[C@H](NCc5ccnc(F)c5)C4)cc3n2)cc1Cl [Example 412, (S)-1-(2-(5-chloro-2,4-dimethoxyphenyl)imidazo[1,2-a]pyridin-7-yl)-N-((2-fluoropyridin-4-yl)methyl)pyrrolidin-3-amine dihydrochloride] | 6.83 | – | 850 |
| COc1cc(OC)c(-c2cn3ccc(N4CCCN(CC5CCCC5)CC4)cc3n2)cc1Cl [Example 442, 2-(5-chloro-2,4-dimethoxyphenyl)-7-(4-(cyclopentylmethyl)-1,4-diazepan-1-yl)imidazo[1,2-a]pyridine] | 13.9 | 730 | – |
| COc1cc(OC)c(-c2cn3ccc(N4CC[C@H](NC(=O)c5ccccn5)C4)cc3n2)cc1Cl [Example 404, (S)—N-(1-(2-(5-chloro-2,4-dimethoxyphenyl)imidazo[1,2-a]pyridin-7-yl)pyrrolidin-3-yl)picolinamide] | 4.03 | 1500 | – |
| COc1cc(OC)c(-c2cn3ccc(N4CCN(c5ccnc(N6CCN(C)CC6)n5)CC4)cc3n2)cc1Cl [Example 351, 2-(5-chloro-2,4-dimethoxyphenyl)-7-(4-(2-(4-methylpiperazin-1-yl)pyrimidin-4-yl)piperazin-1-yl)imidazo[1,2-a]pyridine] | 28.6 | 860 | – |
| COc1cc(OC)c(-c2cn3ccc(N[C@H]4C[C@H]5CC[C@@H](C4)N5Cc4ccncc4)cc3n2)cc1Cl [Example 448, 2-(5-chloro-2,4-dimethoxyphenyl)-N-((1R,3r,5S)-8-(pyridin-4-ylmethyl)-8-azabicyclo[3.2.1]octan-3-yl)imidazo[1,2-a]pyridin-7-amine] | 22.6 | 340 | – |
| COc1cc(OC)c(-c2cn3cnc(N4CCN(S(=O)(=O)C5CC5)CC4)cc3n2)cc1Cl [Example 390, 2-(5-chloro-2,4-dimethoxyphenyl)-7-(4-(cyclopropylsulfonyl)piperazin-1-yl)imidazo[1,2-c]pyrimidine] | 99.6 | 390 | – |
| CNc1ncnc(N2CCN(c3ccn4cc(-c5cc(Cl)c(OC)cc5OC)nc4c3)CC2)n1 [Example 451, 4-(4-(2-(5-chloro-2,4-dimethoxyphenyl)imidazo[1,2-a]pyridin-7-yl)piperazin-1-yl)-N-methyl-1,3,5-triazin-2-amine] | 17 | 460 | – |
| COc1cc(OC)c(-c2cn3ccc(N[C@H]4CC[C@@H](N(C)Cc5ccccc5C)CC4)cc3n2)cc1Cl [Example 348, cis-N^1-(2-(5-chloro-2,4-dimethoxyphenyl)imidazo[1,2-a]pyridin-7-yl)-N^4-methyl-N^4-(2-methylbenzyl)cyclohexane-1,4-diamine bis(2,2,2-trifluoroacetate)] | 31.2 | 750 | – |
| COc1cc(OC)c(-c2cn3ccc(N4CCN(C(C)=O)CC4C)cc3n2)cc1Cl (centres unmarked) [Example 308, 1-(4-(2-(5-chloro-2,4-dimethoxyphenyl)imidazo[1,2-a]pyridin-7-yl)-3-methylpiperazin-1-yl)ethanone] | 3.5 | 8600 | – |
| COc1cc(OC)c(-c2cn3ccc(N4CCN(c5nccc(N6CCCC(O)C6)n5)CC4)cc3n2)cc1Cl (centres unmarked) [Example 376, 1-(2-(4-(2-(5-chloro-2,4-dimethoxyphenyl)imidazo[1,2-a]pyridin-7-yl)piperazin-1-yl)pyrimidin-4-yl)piperidin-3-ol] | 66.5 | 980 | – |
| COc1cc(OC)c(-c2cn3ccc(N4CCN(c5nccc(N6CCN(C(C)=O)CC6)n5)CC4)cc3n2)cc1Cl [Example 373, 1-(4-(2-(4-(2-(5-chloro-2,4-dimethoxyphenyl)imidazo[1,2-a]pyridin-7-yl)piperazin-1-yl)pyrimidin-4-yl)piperazin-1-yl)ethanone 2,2,2-trifluoroacetate] | 13.6 | 640 | – |
| COc1cc(OC)c(-c2cn3ccc(N4CCN(c5cnc(N6CCC(N)C6)nc5)CC4)cc3n2)cc1Cl (centres unmarked) [Example 378, 1-(5-(4-(2-(5-chloro-2,4-dimethoxyphenyl)imidazo[1,2-a]pyridin-7-yl)piperazin-1-yl)pyrimidin-2-yl)pyrrolidin-3-amine dihydrochloride] | 22.8 | – | 680 |
